Measurements as given in patent US20200024278A1, “COMPOSITION COMPRISING ANTIBIOTIC COMPOUND AND AN HETEROCYCLIC COMPOUND AND THEIR USE IN PREVENTING OR TREATING BACTERIAL INFECTIONS” (MUTABILIS, priority 2016, published 2020).
Where two headings read alike, the source gives them in different places.

Legend:
Experiment in all cases: MIC, broth microdilution (CLSI), substance alone or ATB combined with compound at 4 or 8 μg/mL
SPN 49619 = type: cell-based, S. pneumoniae; conditions: SPN 49619
Procedure, shortened: (§1)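 CLSI M7-A7 broth microdilution. ca-MHB, 5·10^5 CFU/mL log-phase cells, 16-20 h, 35° C, ambient air. Fosfomycin wells + 25 μg/ml glucose-6-phosphate. Visual MIC read.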

ECO UFR39 = type: cell-based, E. coli; conditions: for MIC: Escherichia coli
Procedure, shortened: as §1

ECO 190317 = type: cell-based, E. coli; conditions: ECO 190317; for MIC: Escherichia coli
Procedure, shortened: as §1

ECL P99 = type: cell-based, E. cloacae; conditions: ECL P99; for MIC: Enterobacter cloacae
Procedure, shortened: as §1

SAU 29213 = type: cell-based, S. aureus; conditions: SAU 29213
Procedure, shortened: as §1

PAE 105250 = type: cell-based, P. aeruginosa; conditions: PAE 105250
Procedure, shortened: as §1

[1] = antibiotic alone, read-out: MIC ATB alone

For CO/N=C(\C(=O)N[C@@H]1C(=O)N2C(C(=O)O)=C(COC(N)=O)CS[C@H]12)c1ccco1 [FUR, Cefuroxime, reference compound], the “MIC ATB combined with Example 1 @8 μg/ml” value (SPN 49619; with Example 1 @8 μg/ml) was 0.25 µg/mL, the “MIC ATB combined with Example 1 @8 μg/ml” value (SPN 49619; with Example 1 at 8 μg/ml) was 0.25 µg/mL and the “MIC ATB combined with Example 7 @8 μgml” value (SPN 49619; with Example 7 at 8 μg/ml) was 0.25 µg/mL. For the same compound, the “MIC ATB combined with Example 9 @4 μg/ml” value (SPN 49619; with Example 9 @4 μg/ml) was “<=0.031 μg/mL”, the “MIC ATB combined with Example 9 @4 μg/ml” value (SPN 49619; with Example 9 at 4 μg/ml) was “<=0.031 μg/mL” and the “MIC ATB combined with Example 11 @8 μg/ml” value (SPN 49619; with Example 11 at 8 μg/ml) was 0.063 µg/mL. The “MIC ATB combined with Example 12 @8 μg/ml” value (SPN 49619; with Example 12 at 8 μg/ml) was under 0.031 µg/mL, the “MIC ATB combined with Example 13 @8 μg/ml” value (SPN 49619; with Example 13 at 8 μg/ml) was 0.25 µg/mL and the “MIC ATB combined with Example 14 @8 μg/ml” value (SPN 49619; with Example 14 at 8 μg/ml) was under 0.031 µg/mL. For the same compound, the “MIC ATB combined with Example 15 @4 μgml” value (SPN 49619; with Example 15 at 4 μg/ml) was under 0.031 µg/mL, the “MIC ATB combined with Example 16 @4 μg/ml” value (SPN 49619; with Example 16 at 4 μg/ml) was under 0.031 µg/mL and the MIC (SPN 49619; Streptococcus pneumoniae, antibiotic alone, read-out: MIC ATB alone) was 0.25 µg/mL. For the same compound, the “MIC ATB combined with Example 1 @8 μg/ml” value (ECO UFR39; ECO UFR39, with Example 1 @8 μg/ml) was over 32 µg/mL, the “MIC ATB combined with Example 1 @8 μg/ml” value (ECO UFR39; ECO UFR39, with Example 1 at 8 μg/ml) was over 32 µg/mL and the “MIC ATB combined with Example 7 @8 μgml” value (ECO UFR39; ECO UFR39, with Example 7 at 8 μg/ml) was under 0.031 µg/mL. The “MIC ATB combined with Example 9 @4 μg/ml” value (ECO UFR39; ECO UFR39, with Example 9 @4 μg/ml) was under 0.031 µg/mL, the “MIC ATB combined with Example 9 @4 μg/ml” value (ECO UFR39; ECO UFR39, with Example 9 at 4 μg/ml) was under 0.031 µg/mL and the “MIC ATB combined with Example 11 @8 μg/ml” value (ECO UFR39; ECO UFR39, with Example 11 at 8 μg/ml) was under 0.031 µg/mL. The “MIC ATB combined with Example 12 @8 μg/ml” value (ECO UFR39; ECO UFR39, with Example 12 at 8 μg/ml) was under 0.031 µg/mL, the “MIC ATB combined with Example 13 @8 μg/ml” value (ECO UFR39; ECO UFR39, with Example 13 at 8 μg/ml) was under 0.031 µg/mL and the “MIC ATB combined with Example 14 @8 μg/ml” value (ECO UFR39; ECO UFR39, with Example 14 at 8 μg/ml) was under 0.031 µg/mL. The “MIC ATB combined with Example 15 @4 μgml” value (ECO UFR39; ECO UFR39, with Example 15 at 4 μg/ml) was under 0.031 µg/mL, the “MIC ATB combined with Example 16 @4 μg/ml” value (ECO UFR39; ECO UFR39, with Example 16 at 4 μg/ml) was under 0.031 µg/mL and the MIC (ECO UFR39) was over 256 µg/mL. For the same compound, the MIC (ECO UFR39; ECO UFR39, antibiotic alone, read-out: MIC ATB alone) was over 32 µg/mL, the “MIC ATB combined with Example 1 @8 μg/ml” value (ECO 190317; with Example 1 @8 μg/ml) was under 0.031 µg/mL and the “MIC ATB combined with Example 1 @8 μg/ml” value (ECO 190317; with Example 1 at 8 μg/ml) was under 0.031 µg/mL. The “MIC ATB combined with Example 7 @8 μgml” value (ECO 190317; with Example 7 at 8 μg/ml) was under 0.031 µg/mL, the “MIC ATB combined with Example 9 @4 μg/ml” value (ECO 190317; with Example 9 @4 μg/ml) was under 0.031 µg/mL and the “MIC ATB combined with Example 9 @4 μg/ml” value (ECO 190317; with Example 9 at 4 μg/ml) was under 0.031 µg/mL. The “MIC ATB combined with Example 11 @8 μg/ml” value (ECO 190317; with Example 11 at 8 μg/ml) was under 0.031 µg/mL, the “MIC ATB combined with Example 12 @8 μg/ml” value (ECO 190317; with Example 12 at 8 μg/ml) was under 0.031 µg/mL and the “MIC ATB combined with Example 13 @8 μg/ml” value (ECO 190317; with Example 13 at 8 μg/ml) was under 0.031 µg/mL. For the same compound, the “MIC ATB combined with Example 14 @8 μg/ml” value (ECO 190317; with Example 14 at 8 μg/ml) was under 0.031 µg/mL, the “MIC ATB combined with Example 15 @4 μgml” value (ECO 190317; with Example 15 at 4 μg/ml) was under 0.031 µg/mL and the “MIC ATB combined with Example 16 @4 μg/ml” value (ECO 190317; with Example 16 at 4 μg/ml) was under 0.031 µg/mL. For the same compound, the MIC (ECO 190317; [1]) was over 512 µg/mL, the MIC (ECO 190317; substance alone, read-out: MIC) was over 512 µg/mL and the “MIC ATB combined with Example 1 @8 μg/ml” value (ECL P99; with Example 1 @8 μg/ml) was “<=0.031 μg/mL”. The “MIC ATB combined with Example 1 @8 μg/ml” value (ECL P99; with Example 1 at 8 μg/ml) was “<=0.031 μg/mL”, the “MIC ATB combined with Example 7 @8 μgml” value (ECL P99; with Example 7 at 8 μg/ml) was over 32 µg/mL and the “MIC ATB combined with Example 9 @4 μg/ml” value (ECL P99; with Example 9 @4 μg/ml) was under 0.031 µg/mL. For the same compound, the “MIC ATB combined with Example 9 @4 μg/ml” value (ECL P99; with Example 9 at 4 μg/ml) was under 0.031 µg/mL, the “MIC ATB combined with Example 11 @8 μg/ml” value (ECL P99; with Example 11 at 8 μg/ml) was under 0.031 µg/mL and the “MIC ATB combined with Example 12 @8 μg/ml” value (ECL P99; with Example 12 at 8 μg/ml) was under 0.031 µg/mL. For the same compound, the “MIC ATB combined with Example 13 @8 μg/ml” value (ECL P99; with Example 13 at 8 μg/ml) was 16 µg/mL, the “MIC ATB combined with Example 14 @8 μg/ml” value (ECL P99; with Example 14 at 8 μg/ml) was under 0.031 µg/mL and the “MIC ATB combined with Example 15 @4 μgml” value (ECL P99; with Example 15 at 4 μg/ml) was under 0.031 µg/mL. The “MIC ATB combined with Example 16 @4 μg/ml” value (ECL P99; with Example 16 at 4 μg/ml) was under 0.031 µg/mL, the MIC (ECL P99; [1]) was over 512 µg/mL and the MIC (ECL P99; substance alone, read-out: MIC) was over 512 µg/mL. For the same compound, the “MIC ATB combined with Example 1 @8 μg/ml” value (SAU 29213; with Example 1 @8 μg/ml) was 1 µg/mL, the “MIC ATB combined with Example 1 @8 μg/ml” value (SAU 29213; with Example 1 at 8 μg/ml) was 1 µg/mL and the “MIC ATB combined with Example 7 @8 μgml” value (SAU 29213; with Example 7 at 8 μg/ml) was 1 µg/mL. The “MIC ATB combined with Example 9 @4 μg/ml” value (SAU 29213; with Example 9 @4 μg/ml) was under 0.031 µg/mL, the “MIC ATB combined with Example 9 @4 μg/ml” value (SAU 29213; with Example 9 at 4 μg/ml) was under 0.031 µg/mL and the “MIC ATB combined with Example 11 @8 μg/ml” value (SAU 29213; with Example 11 at 8 μg/ml) was under 0.031 µg/mL. For the same compound, the “MIC ATB combined with Example 12 @8 μg/ml” value (SAU 29213; with Example 12 at 8 μg/ml) was under 0.031 µg/mL, the “MIC ATB combined with Example 13 @8 μg/ml” value (SAU 29213; with Example 13 at 8 μg/ml) was 1 µg/mL and the “MIC ATB combined with Example 14 @8 μg/ml” value (SAU 29213; with Example 14 at 8 μg/ml) was under 0.031 µg/mL. For the same compound, the “MIC ATB combined with Example 15 @4 μgml” value (SAU 29213; with Example 15 at 4 μg/ml) was under 0.031 µg/mL, the “MIC ATB combined with Example 16 @4 μg/ml” value (SAU 29213; with Example 16 at 4 μg/ml) was under 0.031 µg/mL and the MIC (SAU 29213; Staphylococcus aureus, antibiotic alone, read-out: MIC ATB alone) was 2 µg/mL. For the same compound, the “MIC ATB combined with Example 1 @8 μg/ml” value (PAE 105250; with Example 1 @8 μg/ml) was under 0.031 µg/mL, the “MIC ATB combined with Example 1 @8 μg/ml” value (PAE 105250; with Example 1 at 8 μg/ml) was under 0.031 µg/mL and the “MIC ATB combined with Example 7 @8 μgml” value (PAE 105250; with Example 7 at 8 μg/ml) was over 32 µg/mL. The “MIC ATB combined with Example 9 @4 μg/ml” value (PAE 105250; with Example 9 @4 μg/ml) was over 32 µg/mL, the “MIC ATB combined with Example 9 @4 μg/ml” value (PAE 105250; with Example 9 at 4 μg/ml) was over 32 µg/mL and the “MIC ATB combined with Example 11 @8 μg/ml” value (PAE 105250; with Example 11 at 8 μg/ml) was over 32 µg/mL.
